Results from patent US9868727B2, “Factor XIa inhibitors” (Merck Sharp & Dohme Corp., priority 2014, dated 2018).

Legend:
[1] = biological target: T1, purified Human plasma kallikrein (Homo sapiens, UniProt P03952); experiment: Kallikrein Assay; format: biochemical; details: Plasma Kallekrein IC50; fluorogenic substrate Acetyl-K-P-R-AFC, 0.5 nM enzyme, pH 7.4; read-out: PK IC50
T1 construct: yields a heavy chain (371 amino acids) and a light chain (248 amino acids); purchased Enzyme Research Laboratories
T1 sequence (P03952 391-638 limits assumed): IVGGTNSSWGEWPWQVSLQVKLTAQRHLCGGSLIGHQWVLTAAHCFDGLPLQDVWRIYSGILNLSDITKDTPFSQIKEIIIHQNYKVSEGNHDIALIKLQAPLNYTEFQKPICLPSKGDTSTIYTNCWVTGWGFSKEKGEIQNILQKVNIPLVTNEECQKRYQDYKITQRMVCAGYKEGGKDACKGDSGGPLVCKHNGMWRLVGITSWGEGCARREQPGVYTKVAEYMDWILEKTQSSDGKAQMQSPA
T1 sequence (P03952 20-390 partner limits assumed): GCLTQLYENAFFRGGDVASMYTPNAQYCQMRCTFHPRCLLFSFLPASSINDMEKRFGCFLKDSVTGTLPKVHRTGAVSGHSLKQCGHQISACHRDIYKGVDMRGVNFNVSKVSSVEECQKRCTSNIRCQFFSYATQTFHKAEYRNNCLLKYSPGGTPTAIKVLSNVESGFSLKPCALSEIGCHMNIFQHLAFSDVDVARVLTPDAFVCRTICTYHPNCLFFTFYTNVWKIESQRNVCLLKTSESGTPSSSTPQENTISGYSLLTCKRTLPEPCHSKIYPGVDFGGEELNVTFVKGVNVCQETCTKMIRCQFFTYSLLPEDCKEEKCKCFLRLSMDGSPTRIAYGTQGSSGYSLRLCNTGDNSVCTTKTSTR
Procedure: (§1) The effectiveness of a compound of the present invention as an inhibitor of Kallikrein can be determined using a relevant purified serine protease, and an appropriate synthetic substrate. The rate of hydrolysis of the chromogenic or fluorogenic substrate by the relevant serine protease was measured both in the absence and presence of compounds of the present invention. Assays were conducted at room temperature or at 37° C. […] A decrease in the rate of fluorescence change in the presence of inhibitor is indicative of enzyme inhibition. Such methods are known to one skilled in the art. The results of this assay are expressed as the inhibitory constant, K1.
Kallikrein determinations were made in 50 mM HEPES buffer at pH 7.4 containing 150 mM NaCl, 5 mM CaCl2, and 0.1% PEG 8000 (polyethylene glycol; Fisher Scientific). Determinations were made using purified Human plasma kallikrein at a final concentration of 0.5 nM (Enzyme Research Laboratories) and the synthetic substrate, Acetyl-K—P—R-AFC (Sigma # C6608) at a concentration of […].
Times required to achieve equilibration between enzyme and inhibitor were determined in control experiments. The reactions were performed under linear progress curve conditions and fluorescence increase measured at 405 Ex/510 Em nm. […] IC50 was determined by inflection point from a four parameter logistic curve fit. Ki was calculated using the Cheng Prusoff equation, Ki=IC50/(1+([S]/Km)).

[2] = biological target: T2, purified human Factor XIa (Homo sapiens, UniProt P03951); experiment: Factor XIa Assay; format: biochemical; details: fluorogenic substrate Z-Gly-Pro-Arg-AFC 100 μM, 40 pM enzyme, pH 7.4, read-out: F11a IC50
T2 construct: purified human Factor XIa; purchased Sekisui Diagnostics
T2 sequence (P03951 388-625 limits assumed): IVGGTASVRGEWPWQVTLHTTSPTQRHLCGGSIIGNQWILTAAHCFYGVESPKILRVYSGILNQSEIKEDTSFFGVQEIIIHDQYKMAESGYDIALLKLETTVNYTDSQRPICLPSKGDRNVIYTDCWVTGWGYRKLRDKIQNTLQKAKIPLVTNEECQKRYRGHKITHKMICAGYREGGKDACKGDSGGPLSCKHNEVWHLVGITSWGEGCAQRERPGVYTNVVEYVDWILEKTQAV
T2 sequence (P03951 19-387 partner limits assumed): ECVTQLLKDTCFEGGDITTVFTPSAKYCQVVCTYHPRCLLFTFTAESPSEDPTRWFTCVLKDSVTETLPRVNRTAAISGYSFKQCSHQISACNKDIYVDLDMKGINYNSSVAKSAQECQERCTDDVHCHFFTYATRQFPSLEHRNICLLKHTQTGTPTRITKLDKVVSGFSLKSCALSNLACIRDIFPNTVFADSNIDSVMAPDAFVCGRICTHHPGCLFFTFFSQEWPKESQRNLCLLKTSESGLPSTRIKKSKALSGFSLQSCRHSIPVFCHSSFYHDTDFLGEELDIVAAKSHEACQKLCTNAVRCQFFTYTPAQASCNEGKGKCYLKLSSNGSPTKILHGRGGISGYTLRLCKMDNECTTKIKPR
Procedure: as §1, with “Coagulation Factor XIa” for “Kallikrein”, “The results of this assay are expressed as the inhibitory constant, K1.” left out
Factor XIa determinations were made in 50 mM HEPES buffer at pH 7.4 containing 150 mM NaCl, 5 mM CaCl2, and 0.1% PEG 8000 (polyethylene glycol; JT Baker or Fisher Scientific). Determinations were made using purified human Factor XIa at a final concentration of 40 pM (Sekisui Diagnostics) and he synthetic substrate, Z-Gly-Pro-Arg-AFC, TFA salt (Sigma #C0980) at a concentration of 100 μM.
Activity assays were performed by diluting a stock solution of substrate at least tenfold to a final concentration ≦0.1 Km into a solution containing enzyme or enzyme equilibrated with inhibitor. Times required to achieve equilibration between enzyme and inhibitor were determined in control experiments. Initial velocities of product formation in the absence (VO) or presence of inhibitor (Vi) were measured. Assuming competitive inhibition, and that unity is negligible compared Km/[S], [I]/e, and [I]/e (where [S], [I], and e respectively represent the total concentrations, of substrate, inhibitor and enzyme), the equilibrium constant (Ki) for dissociation of the inhibitor from the enzyme can be obtained from the dependence of VO/Vi on [I] shown in the following equation.

Row | IC50 [1] [µM] | IC50 [2] [µM] | Structure (SMILES)
1 | 0.428 | 0.0147 | [O-][n+]1cc(-c2cc(Cl)ccc2-n2cnnn2)ccc1C(CC1CC1)c1ncc(-c2cccc(F)c2)[nH]1 (single isomer, unassigned) [Example 32]
2 | 0.802 | 0.0368 | COC(=O)Nc1ccc(-c2[nH]c(C(CC3CC3)c3ccc(-c4cc(Cl)ccc4-n4cnnn4)c[n+]3[O-])nc2C)cc1 (single isomer, unassigned) [Example 76, methyl {4-[2-(1-{5-[5-chloro-2-(1H-tetrazol-1-yl)phenyl]-1-oxidopyridin-2-yl}-2-cyclopropylethyl)-4-methyl-1H-imidazol-5-yl]phenyl}carbamate]
3 | 0.399 | 0.0237 | COC(=O)Nc1ccc(-c2cnc(C(CC3CC3)c3ccc(-c4cc(Cl)ccc4-n4cnnn4)c[n+]3[O-])[nH]2)c(Cl)c1 (single isomer, unassigned) [Example 41]
4 | 0.469 | 0.0102 | O=C(O)c1ccc(-c2cnc(C(Cc3ccccc3)c3ccc(-c4cc(Cl)ccc4-n4cnnn4)c[n+]3[O-])[nH]2)cc1 (single isomer, unassigned) [Example 7]
5 | 0.0103 | 0.0113 | COC(=O)Nc1ccc(-c2c[nH]c(C(Cc3ccc(F)cc3)c3ccc(-c4c(C(F)F)ccc(Cl)c4F)c[n+]3[O-])n2)cc1 (racemic) [Example 13, 5-(3-Chloro-6-(difluoromethyl)-2-fluorophenyl)-2-(2-(4-fluorophenyl)-1-(4-(4-((methoxycarbonyl)amino)phenyl)-1H-imidazol-2-yl)ethyl)pyridine 1-oxide]
6 | 0.404 | 0.0148 | [O-][n+]1cc(-c2cc(Cl)ccc2-n2cnnn2)ccc1C(Cc1ccc(F)cc1)c1nc(-c2ccc(F)cc2)c[nH]1 (single isomer, unassigned) [Example 17]
7 | 0.0313 | 0.00024 | COC(=O)Nc1ccc(-c2cnc(C(CC3CC3)c3ccc(-c4cc(Cl)ccc4-n4cnnn4)c[n+]3[O-])[nH]2)c(C)c1 (single isomer, unassigned) [Example 34]
8 | 0.0761 | 0.00282 | COC(=O)Nc1ccc(-c2nc([C@@H](Cc3ccccc3)c3ccc(-c4cc(Cl)ccc4-n4cnnn4)c[n+]3[O-])[nH]c2Cl)cc1 [Example 2, (S) 5-(5-Chloro-2-(1H-tetrazol-1-yl)phenyl)-2-(1-(5-chloro-4-(4-((methoxycarbonyl)amino)phenyl)-1H-imidazol-2-yl)-2-phenylethyl)pyridine 1-oxide]
9 | 0.137 | 0.0422 | COC(=O)Nc1ccc(-c2c[nH]c(C(Cc3ccccc3)c3ccc(-c4c(F)ccc(Cl)c4F)c[n+]3[O-])n2)cc1 (single isomer, unassigned) [Example 5]
10 | 0.026 | 0.00067 | O=C(O)c1ccc(-c2cnc(C(Cc3ccccc3)c3ccc(-c4cc(Cl)ccc4-n4cnnn4)c[n+]3[O-])[nH]2)cc1 (single isomer, unassigned) [Example 8]
11 | 0.228 | 0.00108 | Nc1ccc(-c2c[nH]c(C(CC3CC3)c3ccc(-c4cc(Cl)ccc4-n4cnnn4)c[n+]3[O-])n2)cn1 (single isomer, unassigned) [Example 50]
12 | 0.0147 | 0.00152 | COC(=O)Nc1ccc(-c2cnc(C(CC3(C)CC3)c3ccc(-c4cc(Cl)ccc4-n4cnnn4)c[n+]3[O-])[nH]2)cc1 (single isomer, unassigned) [Example 44]
13 | 1.05 | 0.0118 | O=C(O)c1scc(-c2cnc(C(CC3CC3)c3ccc(-c4cc(Cl)ccc4-n4cnnn4)c[n+]3[O-])[nH]2)c1F (single isomer, unassigned) [Example 58, 2-(1-(5-(5-carboxy-4-fluorothiophen-3-yl)-1H-imidazol-2-yl)-2-cyclopropylethyl)-5-(5-chloro-2-(1H-tetrazol-1-yl)phenyl)pyridine 1-oxide]
14 | 0.00078 | 0.00382 | [O-][n+]1cc(-c2cc(Cl)ccc2-n2cnnn2)ccc1C(Cc1ccc(F)cc1)c1nc(-c2ccc(F)cc2)c[nH]1 (single isomer, unassigned) [Example 16]
15 | 0.00154 | 0.00104 | COC(=O)Nc1ccc(-c2cnc([C@H](Cc3ccccc3)c3ccc(-c4c(-n5cnnn5)ccc(Cl)c4F)c[n+]3[O-])[nH]2)cc1 [Example 23]
16 | 0.193 | 0.00652 | [O-][n+]1cc(-c2cc(Cl)ccc2-n2cnnn2)ccc1C(Cc1ccc(F)cc1)c1nc(-c2ccc(Cl)cc2)c[nH]1 (single isomer, unassigned) [Example 22]
17 | 0.0281 | 0.00058 | COC(=O)Nc1ccc(-c2cnc(C(CC3CC3)c3ccc(-c4cc(Cl)ccc4-n4cnnn4)c[n+]3[O-])[nH]2)c(Cl)c1 (single isomer, unassigned) [Example 42]
18 | 0.0887 | 0.00236 | COC(=O)Nc1ccc(-c2cnc([C@@H](Cc3ccccc3)c3ccc(-c4c(-n5cnnn5)ccc(Cl)c4F)c[n+]3[O-])[nH]2)cc1 [Example 24]
19 | 0.377 | 0.0274 | N#Cc1cccc(-c2cnc(C(CC3CC3)c3ccc(-c4cc(Cl)ccc4-n4cnnn4)c[n+]3[O-])[nH]2)c1 (single isomer, unassigned) [Example 36]
20 | 0.08 | 0.00032 | Nc1ccc(-c2cnc(C(CC3CC3)c3ccc(-c4cc(Cl)ccc4-n4cnnn4)c[n+]3[O-])[nH]2)c(Cl)n1 (single isomer, unassigned) [Example 47, 6-chloro-5-[2-(1-{5-[5-chloro-2-(1H-tetrazol-1-yl)phenyl]-1-oxidopyridin-2-yl}-2-cyclopropylethyl)-1H-imidazol-5-yl]pyridin-2-amine]
21 | 0.343 | 0.053 | COC(=O)c1scc(-c2cnc(C(CC3CC3)c3ccc(-c4cc(Cl)ccc4-n4cnnn4)c[n+]3[O-])[nH]2)c1F (single isomer, unassigned) [Example 61, Methyl 4-[2-(1-{5-[5-chloro-2-(1H-tetrazol-1-yl)phenyl]-1-oxidopyridin-2-yl}-2-cyclopropylethyl)-1H-imidazol-5-yl]-3-fluorothiophene-2-carboxylate]
22 | 0.048 | 0.00152 | COC(=O)Nc1ccc(-c2[nH]c(C(CC3CC3)c3ccc(-c4cc(Cl)ccc4-n4cnnn4)c[n+]3[O-])nc2C)cc1 (single isomer, unassigned) [Example 77, methyl {4-[2-(1-{5-[5-chloro-2-(1H-tetrazol-1-yl)phenyl]-1-oxidopyridin-2-yl}-2-cyclopropylethyl)-4-methyl-1H-imidazol-5-yl]phenyl}carbamate]
23 | 0.058 | 0.0015 | O=C(O)c1scc(-c2cnc(C(CC3CC3)c3ccc(-c4cc(Cl)ccc4-n4cnnn4)c[n+]3[O-])[nH]2)c1F (single isomer, unassigned) [Example 57, 2-(1-(5-(5-carboxy-4-fluorothiophen-3-yl)-1H-imidazol-2-yl)-2-cyclopropylethyl)-5-(5-chloro-2-(1H-tetrazol-1-yl)phenyl)pyridine 1-oxide]
